Measurements reported in patent US20250188088A1, “COMPOUND AND USE THEREOF” (ONQUALITY PHARMACEUTICALS CHINA LTD., priority 2022, published 2025).

Assays:
[1] = system: rash caused by monoclonal EGFR inhibitors; test: Treatment of rash caused by monoclonal EGFR inhibitors, topical ointment, rat model; type: in vivo; details: SD rats
Description: An Experiment to Verify the Treatment of Rash Caused by Monoclonal EGFR Inhibitors with Topical Administration of Compounds of the Present Application on a Rat Animal Model After the SD rats were fed and adapted for one week (about 200 g), the rats were divided into 10 rats per group. The hair on the back of rats was gently removed with an electric razor one day before the experiment, and then an administration test was carried out. The EGFR monoclonal antibody solution diluted with normal saline was injected via tail vein twice a week, and the injection rate and time were shown in Table 4; the treatment experiment was started at the time point when rats developed a rash after continuous administration for 1-2 weeks. The experiments were divided into the administration group with the compound of the present application and the control group. During the treatment experiment, monoclonal antibody EGFR inhibitors were injected twice a week. the administration group applied the compound ointment of the present application on the back (about 3 cm*3 cm) of rats every day, and the control group applied blank matrix ointment on the back (about 3 cm*3 cm); after application, the rats were fixed with a fixed cyclinder for about 4 hours, and then the rats were released, with the residual drug at the application site wiped off with clean water, and put back into the cage. […] Table 4 lists the animal experiment combinations of monoclonal antibody EGFR inhibitors and the compound ointment of the present application, as well as the corresponding experiment results (wherein, the value in the control rate column=the number of rats whose rash is milder in the administration group than that in the control group/the total number of rats in the administration group×100%).

[2] = system: rash caused by small molecule EGFR inhibitors; test: Prevention of rash caused by small molecule EGFR inhibitors, topical ointment, rat model; type: in vivo, SD rats
Description: An Experiment to Verify the Prevention of Rash Caused by Small Molecule EGFR Inhibitors with Topical Administration of Compounds of the Present Application on a Rat Animal Model A rat animal model was established. After daily gavage of a small molecule EGFR inhibitor to female SD rats for […], the rats developed extensive rashes on their backs several days later (picture shown in FIG. 1). […] Similar to humans, rats developed skin rashes on their faces and bodies after oral administration of small molecule EGFR inhibitors. Both of them had the same etiology and very similar symptoms. Therefore, rats are a proper animal model for mimicking EGFR inhibitor-induced rash. After the SD rats were fed and adapted for one week (about 200 g), the rats were divided into 10 rats per group. The hair on the back of rats was gently removed with an electric razor one day before the experiment, and then an intragastric administration test was carried out. EGFR inhibitors were dissolved in a sterile aqueous solution, and diluted with PBS buffer; the amount of each gavage was not more than 2 mL, and the dosage was shown in Table 1. The experiment comprised the administration group and the control group. After intragastric administration, apply the ointment (type and concentration are shown in Table 1) of the compound used in the present application to the backs (about 3 cm*3 cm) of rats in the administration group; apply blank matrix ointment (about 0.5 g) to the backs (about 3 cm*3 cm) of rats in the control group; fix the rats with a fixed cylinder for about 4 hours after drug application, release the rats after 4 hours, wipe off the residual drug at the application site with clean water, and put them back into the cage. The frequency of intragastric administration of EGFR inhibitors is shown in Table 1, but the compounds of the present application and blank matrix ointment are applied only once a day. The intragastric administration and application test were repeated daily until an obvious rash appeared in the control group. […] Table 1 lists the animal experiment combination of various small molecule EGFR inhibitors and the compound ointment of the present application, as well as the corresponding experiment results (wherein, the value in the control rate column=the number of rats whose rash is milder in the administration group than that in the control group/the total number of rats in the administration group×100%).

[3] = Plasma stability, mini pig plasma; type: in vitro ADME, Mini Pigs; details: 37° C.
Description: (§1) In addition, the plasma stability of these compounds was determined. Briefly, the determination method comprises the following steps: • 1) Thaw the frozen mixed plasma in a 37° C. water bath before testing, and then centrifuge at 4000 rpm for 5 min to remove blood clots; • 2) Add 98 μL blank plasma into each well of the 96-well reaction plate; • 3) In addition to the blank samples, add 2 μL of 100 μM working solution of test compound into each well; • 3) Incubate the reaction plate at 37° C. and start timing. Incubation times were 0, 10, 30, 60 and 120 minutes, respectively, with two replicate wells at each time point; • 4) Terminate the incubation at the corresponding time point, and add 400 μL of acetonitrile solution containing 200 ng/mL tolbutamide and 200 ng/mL labetalol to precipitate proteins; • 5) Shake each plate for 20 minutes, then centrifuge at 4000 rpm for 20 minutes, transfer 50 μL of supernatant to another 96-well plate, and dilute each sample with 100 μL of pure water; • 6) Analyze the sample by LC-MS/MS.

[4] = Plasma stability, human plasma; type: in vitro ADME, Humans; details: 37° C.
Description: as §1
The experiment results are as follows, and it can be seen from the test results that the selected compounds are easily metabolized to the target compound in human plasma.

[5] = Panitumumab 6 mg/kg twice a week via tail vein, ointment 0.1 wt%, 8 days of drug application
[6] = BPI-7711 60 mg/kg once a day, ointment 5.0 wt% (A14: printed '^ 5%%') once a day, 12 days

SMILES: C[C@@H]1CCN(C(=O)CC#N)C[C@@H]1N(C)c1ncnc2c1ccn2C(=O)N(C)CCOC(=O)c1ccccc1 [Compound A14]
- Control Rate ([1]; Cetuximab 102 mg/kg twice a week via tail vein, ointment 1.0 wt%, 10 days of drug application): 20%
- Control Rate ([1]; Cetuximab 102 mg/kg twice a week via tail vein, ointment 5.0 wt%, 10 days of drug application): 60%
- Control Rate [1, 5]: 40%
- Control Rate ([1]; Panitumumab 6 mg/kg twice a week via tail vein, ointment 3.0 wt%, 8 days of drug application): 70%
- Control Rate [2, 6]: 70%
- Control Rate ([2]; Dacomitinib 10 mg/kg once a day, ointment 1.0 wt% once a day, 12 days): 50%
- Control Rate ([2]; Dacomitinib 10 mg/kg once a day, ointment 5.0 wt% once a day, 12 days): 65%
- Control Rate ([2]; Osimertinib 60 mg/kg twice a day, ointment 0.3 wt% once a day, 10 days): 30%
- Control Rate ([2]; Osimertinib 60 mg/kg twice a day, ointment 10.0 wt% once a day, 10 days): 80%
- Control Rate ([2]; Zorifertinib 60 mg/kg once a day, ointment concentration printed '^ 3%%' (wt %) once a day, 14 days): 50%

SMILES: C[C@@H]1CCN(C(=O)CC#N)C[C@@H]1N(C)c1ncnc2c1ccn2C(=O)N(C)CCOC(=O)c1ccncc1 [Compound A15]
- half-life at 2 µM [3]: 71.5 min
- % Retained ([3]; 0 min): 100.0%
- % Retained ([3]; 10 min): 88.3%
- % Retained ([3]; 30 min): 75.9%
- % Retained ([3]; 60 min): 57.6%
- % Retained ([3]; 120 min): 30.8%
- half-life at 2 µM [4]: 4.8 min
- % Retained ([4]; 0 min): 100.0%
- % Retained ([4]; 10 min): 20.6%
- % Retained ([4]; 30 min): 0.9%
- % Retained ([4]; 60 min): 0.0%
- % Retained ([4]; 120 min): 0.0%

SMILES: CC(C)C(=O)OCCN(C)C(=O)n1ccc2c(N(C)[C@H]3CN(C(=O)CC#N)CC[C@H]3C)ncnc21 [Compound A19]
- half-life at 2 µM [3]: 24.3 min
- % Retained ([3]; 0 min): 100.0%
- % Retained ([3]; 10 min): 73.0%
- % Retained ([3]; 30 min): 46.2%
- % Retained ([3]; 60 min): 18.5%
- % Retained ([3]; 120 min): 3.3%
- half-life at 2 µM [4]: 2.6 min
- % Retained ([4]; 0 min): 100.0%
- % Retained ([4]; 10 min): 5.1%
- % Retained ([4]; 30 min): 0.0%
- % Retained ([4]; 60 min): 0.0%
- % Retained ([4]; 120 min): 0.0%

SMILES: C[C@@H]1CCN(C(=O)CC#N)C[C@@H]1N(C)c1ncnc2c1ccn2C(=O)N(C)CCOC(=O)C1CCN(C)CC1 [Compound A17]
- half-life at 2 µM [3]: 66.8 min
- % Retained ([3]; 0 min): 100.0%
- % Retained ([3]; 10 min): 100.9%
- % Retained ([3]; 30 min): 76.0%
- % Retained ([3]; 60 min): 52.2%
- % Retained ([3]; 120 min): 30.7%
- half-life at 2 µM [4]: 25 min
- % Retained ([4]; 0 min): 100.0%
- % Retained ([4]; 10 min): 83.4%
- % Retained ([4]; 30 min): 50.7%
- % Retained ([4]; 60 min): 20.4%
- % Retained ([4]; 120 min): 3.8%

SMILES: CC(=O)OCCN(C)C(=O)n1ccc2c(N(C)[C@H]3CN(C(=O)CC#N)CC[C@H]3C)ncnc21 [Compound A13]
- half-life at 2 µM [3]: > 289 min
- % Retained ([3]; 0 min): 100.0%
- % Retained ([3]; 10 min): 85.3%
- % Retained ([3]; 30 min): 91.0%
- % Retained ([3]; 60 min): 91.0%
- % Retained ([3]; 120 min): 77.6%
- half-life at 2 µM [4]: 32.5 min
- % Retained ([4]; 0 min): 100.0%
- % Retained ([4]; 10 min): 77.1%
- % Retained ([4]; 30 min): 48.2%
- % Retained ([4]; 60 min): 28.1%
- % Retained ([4]; 120 min): 7.4%

SMILES: CN(CCOC(=O)C1CCCCC1)C(=O)n1ccc2c(-c3cnn([C@@H](CC#N)C4CCCC4)c3)ncnc21 [Compound A39]
- Control Rate ([1]; Cetuximab 100 mg/kg twice a week via tail vein, ointment 0.1 wt%, 10 days of drug application): 20%
- Control Rate ([1]; Cetuximab 100 mg/kg twice a week via tail vein, ointment 1.0 wt%, 10 days of drug application): 40%
- Control Rate ([1]; Cetuximab 100 mg/kg twice a week via tail vein, ointment 5.0 wt%, 10 days of drug application): 80%
- Control Rate ([1]; Cetuximab 100 mg/kg twice a week via tail vein, ointment 10.0 wt%, 10 days of drug application): 100%
- Control Rate [1, 5]: 20%
- Control Rate ([1]; Panitumumab 6 mg/kg twice a week via tail vein, ointment 1.0 wt%, 8 days of drug application): 30%
- Control Rate ([1]; Panitumumab 6 mg/kg twice a week via tail vein, ointment 5.0 wt%, 8 days of drug application): 60%
- Control Rate ([1]; Panitumumab 6 mg/kg twice a week via tail vein, ointment 10.0 wt%, 8 days of drug application): 70%
- Control Rate [2, 6]: 90%
- Control Rate ([2]; EAI045 80 mg/kg once a day, ointment 1.0 wt% once a day, 11 days): 20%
- Control Rate ([2]; EAI045 80 mg/kg once a day, ointment 5.0 wt% once a day, 11 days): 65%
- Control Rate ([2]; Osimertinib 60 mg/kg twice a day, ointment 0.1 wt% once a day, 10 days): 10%
- Control Rate ([2]; Osimertinib 60 mg/kg twice a day, ointment 3.0 wt% once a day, 10 days): 30%
- Control Rate ([2]; Zorifertinib 60 mg/kg once a day, ointment 5.0 wt% once a day, 14 days): 40%

SMILES: C[C@@H]1CCN(C(=O)CC#N)C[C@@H]1N(C)c1ncnc2c1ccn2C(=O)N(C)CCOC(=O)C(C)(C)C [Compound A23]
- half-life at 2 µM [3]: 41.1 min
- % Retained ([3]; 0 min): 100.0%
- % Retained ([3]; 10 min): 75.1%
- % Retained ([3]; 30 min): 51.3%
- % Retained ([3]; 60 min): 39.2%
- % Retained ([3]; 120 min): 12.0%
- half-life at 2 µM [4]: 20.8 min
- % Retained ([4]; 0 min): 100.0%
- % Retained ([4]; 10 min): 60.2%
- % Retained ([4]; 30 min): 40.1%
- % Retained ([4]; 60 min): 18.5%
- % Retained ([4]; 120 min): 1.6%
